Reference: patent US20110028566A1, “COMPOSITIONS AND PRODUCTS CONTAINING CYCLOALIPHATIC DIOL ANTIMICROBIAL AGENTS AND METHODS OF USING THE COMPOSITIONS AND PRODUCTS” (EASTMAN CHEMICAL COMPANY, priority 2009, published 2011)

Key:
Test in all cases: Microbial challenge testing in BPW
Assay type in all cases: cell-based
[1] = test system: Proteus vulgaris; settings: 0.2%
Experimental: (§1) The microorganisms used in challenge tests are given in Table 3, designated as either ATCC (American Type Culture Collection) or wild type. These wild type organisms were problematic organisms previously isolated from chemical products. In the description for each organism, the bacteria are indicated as either GN (Gram negative) or GP (Gram positive).
(§2) All of the microorganisms were grown in Tryptose Soy Broth (TSB), DIFCO™ available from Becton, Dickinson and Company, containing 1% dextrose. Aspergillus niger and Candida albicans were incubated at 22° C.±2° C. for at least 96 hours. All bacteria were incubated at 35° C.±2° C. in a humidified incubator for at least 96 hours.
(§3) The following procedure was followed to determine the amount of each challenge material (inoculum broth) required to produce a 10^8 cfu/mL challenge, which is equivalent to a final test-sample microbial concentration of 10^5 to 10^6 cfu (colony-forming units)/mL.
(§4) Using a sterile serological pipette, 1 mL of the growth from each TSB culture was transferred into tubes containing 9 mL phosphate buffer (pH 7.2) and mixed thoroughly. This process was repeated to make serial 1:10 dilutions. Then 0.1 mL of each sample and dilution was inoculated onto agar plates to produce the equivalent of a further 1:10 dilution. C. albicans and A. niger were inoculated onto SDA and bacteria were inoculated onto Plate Count Agar (PCA), DIFCO™ available from Becton, Dickinson and Company. The 0.1 mL aliquots were evenly distributed on the plates using the spread-plate technique. The spread-plate technique is performed by spreading the aliquot over the entire plate surface using a sterile spreading rod while rotating the plate with a rotary auto-plater. After the inoculum was absorbed completely, each plate was inverted and incubated (fungi at 22° C.±2° C. and bacteria at 35° C.±2° C.).
(§5) After incubation for at least 48 hours, colonies that had developed on the agar plates were counted and recorded with the corresponding dilution. If counting had to be delayed temporarily, plates were refrigerated, preferably no more than 24 hours, until they could be counted. The number of cfu/mL was determined by multiplying the count by the dilution factor for that particular plate.
(§6) Turbidity in Nepholemetric Turbidity Units (NTU) was measured for each serial dilution using the HF-Micro 100 Model Turbidimeter. For each microorganism, the plate counts were compared to the turbidity readings.
(§7) Control substrates (“broth alone”) were prepared for each microorganism separately in triplicate by adding 13.5 mL of BPW (pH 7.0) containing 1% (w/v) dextrose to each 20-mL glass tube; then adding 1.5 mL challenge material to produce a final concentration at time zero of 10^5 to 10^6 cfu/mL and a total volume of 15 mL.
(§8) Test sample substrates were prepared containing each test material (1,4-CHDM, etc) or combination of test materials at the concentrations shown in Tables 5 and 6. Sample substrates were prepared in triplicate, except those substrates containing PE or CG which were prepared in duplicate. Substrates were prepared by adding BPW containing 1% (w/v) dextrose to each 20-mL glass tube, then adding the test material in the amount appropriate to achieve the desired weight/volume percent (g/100 mL) and to obtain a total volume of BPW with dextrose and test material of 13.5 mL. Then 1.5 mL challenge material was added to produce a final concentration at time zero of 10^5 to 10^6 cfu/mL of the respective organism and a total test sample substrate volume of 15 mL.
(§9) After mixing, all challenged substrates were incubated at 35° C.±2° C. for 14 days and then at ambient room temperature.

[2] = test system: Burkholderia cepacia
Experimental: as §1, §2, §3, §4, §5, §6, §7, §8, §9

[3] = test system: Staphylococcus epidermidis
Experimental: as §1, §2, §3, §4, §5, §6, §7, §8, §9

[4] = test system: Pseudomonas aeruginosa
Experimental: as §1, §2, §3, §4, §5, §6, §7, §8, §9

[5] = test system: Streptococcus mutans
Experimental: as §1, §2, §3, §4, §5, §6, §7, §8, §9

[6] = test system: Aspergillus niger
Experimental: as §1, §2
Aspergillus niger and Candida albicans were also grown on Sabouraud dextrose agar (SDA) at 22° C.±2° C. for 7 to 14 days or until full sporulation was achieved.
as §3, §4, §5, §6
Aspergillus niger cultures were harvested and spores dislodged from the SDA on which they were grown by rubbing the growth gently with a sterile inoculating loop. The spores were then mixed into the broth culture that had been incubated with a sterile magnetic stir bar to reduce pellicle formation. The spore-culture mixture was filtered repeatedly through sterile, non-absorbent cotton and harvested repeatedly, adjusting vegetative cells and spores to a level of 1.0×10^8. A hemocytometer was used to verify the final challenge concentration.
as §7
Test sample substrates were prepared containing each test material (1,4-CHDM, etc) or combination of test materials at the concentrations shown in Tables 5 and 6.

## O=c1[nH]sc2ccccc12 [BIT, 1,2-benzisothiazolin-3-one]
[1]; 3 days incubation
  Grade code P. vulqaris: 4 (1001 to 10,000 colonies (thus 10,000 cfu/mL to 100,000 cfu/mL))
[1]; 13 days incubation
  Grade code P. vulqaris: 2 (52 to 100 colonies counted (thus 520 to 1000 cfu/mL))
[1]; 30 days incubation
  Grade code P. vulqaris: 0 (No growth detected or <1 colony (thus <10 cfu/mL))
[2]; 0.05%, 3 days incubation
  Grade code B. cepacia: 4 (1001 to 10,000 colonies (thus 10,000 cfu/mL to 100,000 cfu/mL))
[2]; 0.05%, 14 days incubation
  Grade code B. cepacia: 4 (1001 to 10,000 colonies (thus 10,000 cfu/mL to 100,000 cfu/mL))
[2]; 0.05%, 30 days incubation
  Grade code B. cepacia: 4 (1001 to 10,000 colonies (thus 10,000 cfu/mL to 100,000 cfu/mL))
[2]; 0.2%, 3 days incubation
  Grade code B. cepacia: 3 (101 to 1000 colonies (thus 1000 to 10,000 cfu/mL))
[2]; 0.2%, 14 days incubation
  Grade code B. cepacia: 1 (1 to 51 colonies counted (thus 10 to 510 cfu/mL))
[2]; 0.2%, 30 days incubation
  Grade code B. cepacia: 2 (52 to 100 colonies counted (thus 520 to 1000 cfu/mL))
[3]; 0.05%, 3 days incubation
  Grade code S. epidermidis: 4 (1001 to 10,000 colonies (thus 10,000 cfu/mL to 100,000 cfu/mL))
[3]; 0.05%, 13 days incubation
  Grade code S. epidermidis: 4 (1001 to 10,000 colonies (thus 10,000 cfu/mL to 100,000 cfu/mL))
[3]; 0.05%, 30 days incubation
  Grade code S. epidermidis: 4 (1001 to 10,000 colonies (thus 10,000 cfu/mL to 100,000 cfu/mL))
[3]; 0.2%, 3 days incubation
  Grade code S. epidermidis: 4 (1001 to 10,000 colonies (thus 10,000 cfu/mL to 100,000 cfu/mL))
[3]; 0.2%, 13 days incubation
  Grade code S. epidermidis: 2 (52 to 100 colonies counted (thus 520 to 1000 cfu/mL))
[3]; 0.2%, 30 days incubation
  Grade code S. epidermidis: 2 (52 to 100 colonies counted (thus 520 to 1000 cfu/mL))
[4]; 0.05%, 3 days incubation
  Grade code P. aeruginosa: 4 (1001 to 10,000 colonies (thus 10,000 cfu/mL to 100,000 cfu/mL))
[4]; 0.05%, 13 days incubation
  Grade code P. aeruginosa: 4 (1001 to 10,000 colonies (thus 10,000 cfu/mL to 100,000 cfu/mL))
[4]; 0.05%, 30 days incubation
  Grade code P. aeruginosa: 4 (1001 to 10,000 colonies (thus 10,000 cfu/mL to 100,000 cfu/mL))
[4]; 0.2%, 3 days incubation
  Grade code P. aeruginosa: 3 (101 to 1000 colonies (thus 1000 to 10,000 cfu/mL))
[4]; 0.2%, 13 days incubation
  Grade code P. aeruginosa: 4 (1001 to 10,000 colonies (thus 10,000 cfu/mL to 100,000 cfu/mL))
[4]; 0.2%, 30 days incubation
  Grade code P. aeruginosa: 4 (1001 to 10,000 colonies (thus 10,000 cfu/mL to 100,000 cfu/mL))
[5]; 0.05%, 3 days incubation
  Grade code S. mutans: 1.7
[5]; 0.05%, 13 days incubation
  Grade code S. mutans: 0 (No growth detected or <1 colony (thus <10 cfu/mL))
[5]; 0.05%, 30 days incubation
  Grade code S. mutans: 0 (No growth detected or <1 colony (thus <10 cfu/mL))
[5]; 0.2%, 3 days incubation
  Grade code S. mutans: 0 (No growth detected or <1 colony (thus <10 cfu/mL))
[5]; 0.2%, 13 days incubation
  Grade code S. mutans: 0 (No growth detected or <1 colony (thus <10 cfu/mL))
[5]; 0.2%, 30 days incubation
  Grade code S. mutans: 0 (No growth detected or <1 colony (thus <10 cfu/mL))
[5]; BIT alone
  Effectiveness against S. mutans (in words): highly effective
[6]; 0.05%, 3 days incubation
  Grade code A. niger: 4
[6]; 0.05%, 13 days incubation
  Grade code A. niger: 4
[6]; 0.05%, 30 days incubation
  Grade code A. niger: 4
[6]; 0.2%, 3 days incubation
  Grade code A. niger: 4
[6]; 0.2%, 13 days incubation
  Grade code A. niger: 4
[6]; 0.2%, 30 days incubation
  Grade code A. niger: 4
